Results published in patent publication EP0390515A1, “Novel adenine derivatives and their use as agents for increasing crop yields” (MITSUBISHI GAS CHEMICAL COMPANY, INC., priority 1989, dated 1990).
Converted amounts (≈) assume the structure as drawn. Like-named read-outs stand apart in the source and are kept apart here.

Tests used:
[1] = Water solubility; format: physicochemical
Protocol: Water solubility of adenine derivatives of the present invention and representative known cytokinin substances was measured and the results are shown in Table 7. […]

[2] = tested on: glycine (soybean) hypocotyl section; experiment: Assay for cytokinin activity according to glycine (soybean) hypocotyl section growth test (callus weight); format: cell-based, Soybean (var.: Enrei); details: Miller's medium with 2,4-D, dark, 30°C, about one month
Protocol: Soybean seeds (var.: Enrei) were disinfected with antiformin containing 0.7% effective chlorine for 4 minutes and washed thrice with sterilized water.
Agar (15 ml, 1.6%) was put in a test tube 2.5 cm in diameter. A groove was cut by forceps on the surface of the agar and two soybean seeds treated as above were placed in this groove and kept in the dark at 30°C for 5 days.
In a glass tubular bottle 26 mm in inner diameter was put Miller's medium, to which a given concentration of the candidate compound, benzyladenine or zeatin and […] of 2,4-D were added. The central portion of hypocotyl budding out from the above seeds was cut off to give a section 1 mm thick. Four of the sections as one group were transplanted to the Miller's medium. This was placed in the dark at 30°C for about one month and then the weight of callus formed was measured. For untreated group, the Miller's medium containing 9 mg/l of 2,4-D was used.

[3] = tested on: Rice seeds (var.: Nankin No. 11) leaf section; experiment: Assay of cytokinin activity by measurement of chlorophyll content (senescence retardation of rice leaf sections); format: cell-based, Rice (var.: Nankin No. 11); details: dark, 30°C, 3 days
Protocol: Rice seeds (var.: Nankin No. 11) were sown in soil mixed with fertilizer in a seed box and raised for about one month in a greenhouse (25°C in the daytime and 15°C in the night).
A leaf section 1 cm long was cut off from the center of the fourth leaf of the seedlings at the sixth leaf stage. Five leaf sections as one group which had been cut off were floated on the surface of an aqueous solution (2 ml) of the candidate compound or benzyl adenine at a given concentration contained in a glass tubular bottle of 32 mm in inner diameter. This was left to stand in the dark at 30°C for 3 days. The leaf sections were taken out and put in a test tube containing 10 ml of 80% ethanol and the glass tube was immersed in a water bath of 80°C for 20 minutes to extract chlorophyll. After cooling, 80% ethanol was added to make up to 10 ml and absorbance at 665 nm was measured. For the untreated group, water was used in place of the candidate solution in all examples.
Senescence retardation was determined according to the degree of chlorophyll retention, that is, calculated using the following formula (in all examples). [formula] • (A) : Absorbance of treated group after 3 days • (B) : Absorbance of untreated group after 3 days • (C) : Absorbance of leaves before treatment.

[4] = tested on: pig weed (Amaranthus caudatus); experiment: Assay of cytokinin activity to promote synthesis of betacyanin by pig weed cotyledon sections; format: cell-based; details: 27°C, 20 hours, dark
Protocol: Two sheets of filter paper were put double in a plastic container (19 x 28 cm) and were wetted with 60 ml of distilled water. Seeds of pig weed were sown on the filter papers and were germinated by keeping them in the dark at 27°C for 3 days. Seedlings of uniform size were chosen and were cut at the upper part of the hypocotyl and the seed coats were removed. This cotyledon with hypocotyl of 3-4 mm in length was used for assay.
Two sheets of filter paper were put double in a glass tubular bottle 32 mm in inner diameter and 1 ml of 0.0065M potassium phosphate buffer solution (pH: 6.3) containing a given concentration of the candidate compound, benzyladenine or zeatin and 0.5 g/l of tyrosine was added therein and ten of the above cotyledon sections were arranged therein and kept at 27°C for 20 hours in the dark. These ten cotyledon sections were put in a test tube containing 3 ml of distilled water and betacyanin was extracted by repeating thrice freezing and thawing. Absorbance of the solution was measured and the amount of the dye was calculated by the difference between the absorbance at 542 nm and at 620 nm. For the untreated group, 0.0065M potassium phosphate buffer solution (pH: 6.3) containing 0.5 g/l of tyrosine was used.

[5] = 20°C, read-out: Solubility (g/100 g H₂O) (20°C)

| Structure (SMILES) | solubility [1] [mg/mL] | solubility [1, 5] [mg/mL] | The weight of soybean callus formed ([2]; 0.01 mg/l) [mg] | The weight of soybean callus formed ([2]; 0.1 mg/l) [mg] | The weight of soybean callus formed ([2]; 1.0 mg/l) [mg] | The weight of soybean callus formed ([2]; 10 mg/l) [mg] | The senescence retardation (%) ([3]; 0.01 mg/l) | The senescence retardation (%) ([3]; 0.1 mg/l) | The senescence retardation (%) ([3]; 1.0 mg/l) | The senescence retardation (%) ([3]; 10 mg/l) | The senescence retardation (%) ([3]; 100 mg/l) | The amount of betacyanin produced (difference between absorbance at 542 nm and 620 nm) ([4]; 0.1 mg/l) | The amount of betacyanin produced (difference between absorbance at 542 nm and 620 nm) ([4]; 1.0 mg/l) | The amount of betacyanin produced (difference between absorbance at 542 nm and 620 nm) ([4]; 10 mg/l) | The amount of betacyanin produced (difference between absorbance at 542 nm and 620 nm) ([4]; 100 mg/l) | The weight of soybean callus formed ([2]; 0.001 mg/l) [mg] | The amount of betacyanin produced (difference between absorbance at 542 nm and 620 nm) ([4]; 0.001 mg/l) | The amount of betacyanin produced (difference between absorbance at 542 nm and 620 nm) ([4]; 0.01 mg/l) |
| --- | --- | --- | --- | --- | --- | --- | --- | --- | --- | --- | --- | --- | --- | --- | --- | --- | --- | --- |
| c1coc(CNc2ncnc3[nH]cnc23)c1 [Kinetin, reference compound] | 0.02 (≈ 0.0929 mM) | – | – | – | – | – | – | – | – | – | – | – | – | – | – | – | – | – |
| CON(C)CCCCNc1ncnc2nc[nH]c12 [MABD, N⁶-[4-(N-methoxy-N-methylamino)butyl]adenine] | – | 53 (≈ 212 mM) | 51 | 152 | 178 | 824 | 1 | 11 | 21 | 77 | 87 | 0.044 | 0.069 | 0.127 | 0.207 | – | – | – |
| CON(C)CCCNc1ncnc2nc[nH]c12 [MAPD, N⁶-[3-(N-methoxy-N-methylamino)propyl]adenine] | – | 136 (≈ 576 mM) | 131 | 143 | 841 | 677 | 18 | 50 | 94 | 99 | 91 | 0.065 | 0.132 | 0.227 | 0.236 | – | – | – |
| C/C(=C\CNc1ncnc2[nH]cnc12)CO [t-Zeatin, reference compound] | – | 1.4 (≈ 6.39 mM) | 382 | 815 | 662 | – | – | – | – | – | – | 0.198 | 0.242 | – | – | 52 | 0.040 | 0.062 |
